Results reported in patent publication US8415378B2, “Isoxazol-3(2H)-one analogs as therapeutic agents” (AstraZeneca AB, priority 2009, dated 2013).

biological target: T1, human Glu-plasminogen (Homo sapiens, UniProt P00747); assay: Clot-lysis buffer assay; type: biochemical
T1 construct: human Glu-plasminogen; purchased Chromogenix, Italy
Method: The assay method used for evaluating biological activity of the compounds according to the invention was Clot-lysis buffer assay.
Tested substance were added to the reaction mixture in 10% DMSO. Reaction was started by the addition of thrombin.
Measured according to the Clot-lysis buffer assay described above.

T1 sequence (P00747 20-810 limits assumed): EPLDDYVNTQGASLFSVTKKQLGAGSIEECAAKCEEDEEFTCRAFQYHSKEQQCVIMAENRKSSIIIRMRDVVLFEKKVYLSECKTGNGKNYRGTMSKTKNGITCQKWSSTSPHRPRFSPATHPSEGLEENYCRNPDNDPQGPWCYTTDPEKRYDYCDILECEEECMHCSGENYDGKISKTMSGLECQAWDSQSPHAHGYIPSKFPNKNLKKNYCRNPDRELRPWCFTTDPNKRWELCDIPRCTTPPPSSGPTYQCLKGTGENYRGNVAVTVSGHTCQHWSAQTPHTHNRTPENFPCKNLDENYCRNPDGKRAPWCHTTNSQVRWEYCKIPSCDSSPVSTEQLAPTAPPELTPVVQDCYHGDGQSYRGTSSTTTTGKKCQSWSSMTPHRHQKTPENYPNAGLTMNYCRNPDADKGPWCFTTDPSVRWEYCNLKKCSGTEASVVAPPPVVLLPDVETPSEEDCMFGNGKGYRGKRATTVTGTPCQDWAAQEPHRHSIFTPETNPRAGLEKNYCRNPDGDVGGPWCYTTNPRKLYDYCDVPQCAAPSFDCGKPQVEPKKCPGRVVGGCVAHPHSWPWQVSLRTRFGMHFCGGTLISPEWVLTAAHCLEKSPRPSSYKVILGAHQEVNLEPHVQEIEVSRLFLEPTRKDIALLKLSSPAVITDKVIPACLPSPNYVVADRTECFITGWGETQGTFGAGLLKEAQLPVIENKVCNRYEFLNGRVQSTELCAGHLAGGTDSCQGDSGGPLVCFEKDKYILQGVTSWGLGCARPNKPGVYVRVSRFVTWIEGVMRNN

| IC50 | Compound |
| --- | --- |
| 0.6 µM | Cc1cc(C(F)(F)F)ccc1[C@H]1C[C@@H](c2cc(=O)[nH]o2)CCN1 [Example 72, 5-((2R,4S)-2-(2-Methyl-4-(trifluoromethyl)phenyl)piperidin-4-yl)isoxazol-3(2H)-one] |
| 33.1 µM | O=c1cc([C@@H]2CCN[C@H](c3cccc(C(F)(F)F)c3)C2)o[nH]1 [Example 31, 5-((2S,4R)-2-(3-(Trifluoromethyl)phenyl)piperidin-4-yl)isoxazol-3(2H)-one] |
| 24 µM | O=c1cc([C@@H]2CCN[C@@H](c3ccc(Cl)cc3)C2)o[nH]1 (relative stereo) [Example 29, 5-(Trans-2-(4-chlorophenyl)piperidin-4-yl)isoxazol-3(2H)-one] |
| 228 µM | CC(C)(C)c1ccc([C@H]2C[C@H](c3cc(=O)[nH]o3)CCN2)cc1 (relative stereo) [Example 37, 5-(Trans-2-(4-tert-butylphenyl)piperidin-4-yl)isoxazol-3(2H)-one] |
| 64.2 µM | O=c1cc([C@H]2CCN[C@H](c3ccccc3)C2)o[nH]1 [Example 78] |
| 14.4 µM | O=c1cc([C@@H]2CCN[C@@H](c3ccc(C(F)(F)F)cc3)C2)o[nH]1 (relative stereo) [Example 35, 5-(Trans-2-(4-(trifluoromethyl)phenyl)piperidin-4-yl)isoxazol-3(2H)-one] |
| 23.6 µM | O=c1cc([C@@H]2CCN[C@@H](c3cccc(C(F)(F)F)c3)C2)o[nH]1 (relative stereo) [Example 32, 5-(Trans-2-(3-(trifluoromethyl)phenyl)piperidin-4-yl)isoxazol-3(2H)-one] |
| 0.9 µM | O=c1cc([C@H]2CCN[C@@H](c3ccc(Cl)cc3Cl)C2)o[nH]1 [Example 51, 5-((2R,4S)-2-(2,4-Dichlorophenyl)piperidin-4-yl)isoxazol-3(2H)-one] |
| 1.4 µM | O=c1cc([C@H]2CCN[C@@H](c3ccc(F)cc3Cl)C2)o[nH]1 [Example 47, 5-((2R,4S)-2-(2-Chloro-4-fluorophenyl)piperidin-4-yl)isoxazol-3(2H)-one] |
| 1.9 µM | CC(C)(C)c1cccc([C@H]2C[C@@H](c3cc(=O)[nH]o3)CCN2)c1 [Example 36, 5-((2R,4S)-2-(3-tert-Butylphenyl)piperidin-4-yl)isoxazol-3(2H)-one] |
| 1.3 µM | Cc1cc([C@H]2C[C@@H](c3cc(=O)[nH]o3)CCN2)ccc1C(F)(F)F [Example 67, 5-((2R,4S)-2-(3-Methyl-4-(trifluoromethyl)phenyl)piperidin-4-yl)isoxazol-3(2H)-one] |
| 81.1 µM | Cc1cc([C@@H]2C[C@H](c3cc(=O)[nH]o3)CCN2)ccc1C(F)(F)F [Example 68, 5-((2S,4R)-2-(3-Methyl-4-(trifluoromethyl)phenyl)piperidin-4-yl)isoxazol-3(2H)-one] |
| 97.3 µM | CS(=O)(=O)c1ccc(C2CC(c3cc(=O)[nH]o3)CCN2)cc1 (stereo not drawn) [Example 39, 5-((Trans-2-(4-(methylsulfonyl)phenyl)piperidin-4-yl)isoxazol-3(2H)-one] |
| 73.8 µM | O=c1cc([C@@H]2CCN[C@@H](c3ccc(F)cc3)C2)o[nH]1 (relative stereo) [Example 26, 5-(Trans-2-(4-fluorophenyl)piperidin-4-yl)isoxazol-3(2H)-one] |
| 92.5 µM | Cc1cc([C@H]2C[C@H](c3cc(=O)[nH]o3)CCN2)ccc1C(F)(F)F (relative stereo) [Example 69, 5-(Trans-2-(3-methyl-4-(trifluoromethyl)phenyl)piperidin-4-yl)isoxazol-3(2H)-one] |
| 1.5 µM | CS(=O)(=O)c1ccc([C@H]2C[C@@H](c3cc(=O)[nH]o3)CCN2)cc1 [Example 38, 5-((2R,4S)-2-(4-(Methylsulfonyl)phenyl)piperidin-4-yl)isoxazol-3(2H)-one] |
| 372 µM | O=c1cc([C@@H]2CCN[C@@H](c3ccc(Cl)cc3Cl)C2)o[nH]1 [Example 54, 5-((2R,4R)-2-(2,4-Dichlorophenyl)piperidin-4-yl)isoxazol-3(2H)-one] |

The remaining lines, values behind:

| Compound | IC50 |
| --- | --- |
| O=c1cc([C@@H]2CCN[C@@H](COC3CCCCC3)C2)o[nH]1 (relative stereo) [Example 86, 5-(Trans-2-(cyclohexyloxymethyl)piperidin-4-yl)isoxazol-3(2H)-one] | 15.6 µM |
| O=c1cc([C@H]2CCN[C@@H](Cc3cccc(C(F)(F)F)c3)C2)o[nH]1 [Example 107, 5-((2R,4S)-2-(3-(Trifluoromethyl)benzyl)piperidin-4-yl)isoxazol-3(2H)-one] | 1.7 µM |
| O=c1cc([C@@H]2CCN[C@@H](Cc3cc(F)cc(F)c3)C2)o[nH]1 [Example 133, 5-((2R,4R)-2-(3,5-Difluorobenzyl)piperidin-4-yl)isoxazol-3(2H)-one] | 120 µM |
| O=c1cc([C@@H]2CCN[C@@H](c3ccc(C(F)(F)F)cc3F)C2)o[nH]1 (relative stereo) [Example 74, 5-(Trans-2-(2-fluoro-4-(trifluoromethyl)phenyl)piperidin-4-yl)isoxazol-3(2H)-one] | 52.2 µM |
| O=c1cc([C@@H]2CCN[C@H](Cc3ccc(C(F)(F)F)c(F)c3)C2)o[nH]1 [Example 141, 5-((2S,4R)-2-(3-Fluoro-4-(trifluoromethyl)benzyl)piperidin-4-yl)isoxazol-3(2H)-one] | 69.5 µM |
| O=c1cc([C@@H]2CCN[C@@H](Cc3cc(F)cc(C(F)(F)F)c3)C2)o[nH]1 (relative stereo) [Example 139, 5-(Trans-2-(3-fluoro-5-(trifluoromethyl)benzyl)piperidin-4-yl)isoxazol-3(2H)-one] | 2.9 µM |
| O=c1cc([C@H]2CCN[C@@H](c3ccc(F)cc3F)C2)o[nH]1 [Example 44, 5-((2R,4S)-2-(2,4-Difluorophenyl)piperidin-4-yl)isoxazol-3(2H)-one] | 2.3 µM |
| O=c1cc([C@H]2CCN[C@@H](Cc3ccc(C(F)(F)F)c(F)c3)C2)o[nH]1 [Example 140, 5-((2R,4S)-2-(3-Fluoro-4-(trifluoromethyl)benzyl)piperidin-4-yl)isoxazol-3(2H)-one] | 0.6 µM |
| O=c1cc([C@H]2CCN[C@@H](Cc3ccc(C(F)(F)F)cc3)C2)o[nH]1 [Example 104, 5-((2R,4S)-2-(4-(Trifluoromethyl)benzyl)piperidin-4-yl)isoxazol-3(2H)-one] | 1.5 µM |
| O=c1cc([C@H]2CCN[C@H](c3cc(F)c(F)cc3F)C2)o[nH]1 [Example 64, 5-((2S,4S)-2-(2,4,5-Trifluorophenyl)piperidin-4-yl)isoxazol-3(2H)-one] | 31.4 µM |
| O=c1cc([C@H]2CCN[C@@H](Cc3ccc(F)c(F)c3)C2)o[nH]1 [Example 120, 5-((2R,4S)-2-(3,4-Difluorobenzyl)piperidin-4-yl)isoxazol-3(2H)-one] | 0.89 µM |
| O=c1cc([C@H]2CCN[C@@H](Cc3cc(F)c(F)c(F)c3)C2)o[nH]1 [Example 143, 5-((2R,4S)-2-(3,4,5-Trifluorobenzyl)piperidin-4-yl)isoxazol-3(2H)-one] | 0.9 µM |
| O=c1cc([C@H]2CCN[C@@H](c3cc(Cl)cc(Cl)c3)C2)o[nH]1 [Example 55, 5-((2R,4S)-2-(3,5-Dichlorophenyl)piperidin-4-yl)isoxazol-3(2H)-one] | 0.6 µM |
| O=c1cc([C@@H]2CCN[C@H](c3cc(F)c(F)c(F)c3)C2)o[nH]1 [Example 61, 5-((2S,4R)-2-(3,4,5-Trifluorophenyl)piperidin-4-yl)isoxazol-3(2H)-one] | 858 µM |
| O=c1cc([C@H]2CCN[C@@H](Cc3cc(F)cc(C(F)(F)F)c3)C2)o[nH]1 [Example 137, 5-((2R,4S)-2-(3-Fluoro-5-(trifluoromethyl)benzyl)piperidin-4-yl)isoxazol-3(2H)-one] | 1 µM |
| O=c1cc([C@@H]2CCN[C@@H](c3ccc(Cl)cc3F)C2)o[nH]1 (relative stereo) [Example 46, 5-(Trans-2-(4-chloro-2-fluorophenyl)piperidin-4-yl)isoxazol-3(2H)-one] | 90.7 µM |
| O=c1cc([C@@H]2CCN[C@@H](Cc3ccc(Cl)cc3)C2)o[nH]1 (relative stereo) [Example 116, 5-(Trans-2-(4-chlorobenzyl)piperidin-4-yl)isoxazol-3(2H)-one] | 5.6 µM |
| O=c1cc([C@H]2CCN[C@H](Cc3ccc(C(F)(F)F)cc3)C2)o[nH]1 [Example 105, 5-((2S,4S)-2-(4-(Trifluoromethyl)benzyl)piperidin-4-yl)isoxazol-3(2H)-one] | 7.2 µM |
| O=c1cc([C@H]2CCN[C@@H](Cc3ccccc3C(F)(F)F)C2)o[nH]1 [Example 110, 5-((2R,4S)-2-(2-(Trifluoromethyl)benzyl)piperidin-4-yl)isoxazol-3(2H)-one] | 1.2 µM |
| O=c1cc([C@@H]2CCN[C@H](c3cc(Cl)cc(Cl)c3)C2)o[nH]1 [Example 56, 5-((2S,4R)-2-(3,5-Dichlorophenyl)piperidin-4-yl)isoxazol-3(2H)-one] | 43.8 µM |
| O=c1cc([C@@H]2CCN[C@H](Cc3cc(F)c(F)c(F)c3)C2)o[nH]1 [Example 144, 5-((2S,4R)-2-(3,4,5-Trifluorobenzyl)piperidin-4-yl)isoxazol-3(2H)-one] | 88.2 µM |
| CC(C)(C)c1cc(C[C@H]2C[C@@H](c3cc(=O)[nH]o3)CCN2)cc(C(C)(C)C)c1 [Example 146, 5-((2R,4S)-2-(3,5-Di-tert-butylbenzyl)piperidin-4-yl)isoxazol-3(2H)-one] | 6.6 µM |
| O=c1cc([C@H]2CCN[C@@H](C(F)F)C2)o[nH]1 [Example 87, 5-((2R,4S)-2-(Difluoromethyl)piperidin-4-yl)isoxazol-3(2H)-one] | 10.7 µM |
| O=c1cc([C@H]2CCN[C@@H](Cc3ccc(Cl)cc3)C2)o[nH]1 [Example 115, 5-((2R,4S)-2-(4-Chlorobenzyl)piperidin-4-yl)isoxazol-3(2H)-one] | 0.8 µM |
| O=c1cc([C@@H]2CCN[C@@H](Cc3ccc(F)c(F)c3)C2)o[nH]1 [Example 123, 5-((2R,4R)-2-(3,4-Difluorobenzyl)piperidin-4-yl)isoxazol-3(2H)-one] | 147 µM |
| O=c1cc([C@@H]2CCN[C@@H](CCc3ccc(F)cc3)C2)o[nH]1 (relative stereo) [Example 94, 5-(Trans-2-(4-fluorophenethyl)piperidin-4-yl)isoxazol-3(2H)-one] | 4.6 µM |
